Our source for the solubility values is the OPERA property sets (Mansouri et al. 2018).

≈ marks a conversion by molar mass, not a printed value.

The compound `CC(=O)OC(C)C` gave a solubility (20 °C) of 303 mM (≈ 30900 µg/mL).

Where the note is “25 °C”, `O=C1c2ccccc2C(=O)c2cc(O)ccc21` showed a solubility of 0.00491 mM (≈ 1.1 µg/mL).

Compound `CCCOC(C)=O` had a solubility (20 °C) of 185 mM (≈ 18900 µg/mL).

`COC(C)=O` had a solubility (20 °C) of 3280 mM (≈ 243000 µg/mL).

For `CC(C)c1ccc(C(=O)O)cc1`, the solubility (25 °C) came out at 0.92 mM (≈ 151 µg/mL).

With `O=C1c2ccc(O)cc2C(=O)c2ccc(O)cc21`, the solubility (25 °C) was 0.00129 mM (≈ 0.31 µg/mL).

For the setting “20 °C”, `CCOC(=O)CCCCC(=O)OCC` had a solubility of 20.9 mM (≈ 4230 µg/mL).

For the compound `Cc1cccc(S(N)(=O)=O)c1`, the solubility (25 °C) stood at 45.6 mM (≈ 7810 µg/mL).

On to `CCCCCCCCC(C(=O)O)C(=O)O`, for which the solubility (25 °C) worked out at 1.2 mM (≈ 260 µg/mL).

For the setting “25 °C”, `COc1ccc(C=CC(=O)O)cc1` returned a solubility of 5.15 mM (≈ 918 µg/mL).

In turn, `CC(Cl)C(Cl)(Cl)C(O)O` (stereo not drawn) returned a solubility (20 °C) of 136 mM (≈ 26300 µg/mL).

For `F[P-](F)(F)(F)(F)F.N#[N+]c1ccccc1`, the solubility (20 °C) worked out at 36 mM.

`O=C(O)C=Cc1cccc(Br)c1` displayed a solubility (25 °C) of 2.31 mM (≈ 525 µg/mL).

In the case of `O=C(O)c1ccc(I)cc1`, the solubility (25 °C) came out at 0.109 mM (≈ 27 µg/mL).

With `CC(=O)Nc1ccc([N+](=O)[O-])cc1`, the solubility (25 °C) worked out at 12.2 mM (≈ 2200 µg/mL).

For `O=C(O)/C=C/c1ccc2c(c1)OCO2`, the solubility (25 °C) amounted to 0.141 mM (≈ 27 µg/mL).

The compound `C[C@H]1C[C@@H](OC(=O)c2ccccc2)CC(C)(C)N1` registered a solubility (20 °C) of 12 mM (≈ 2960 µg/mL).

As to `O=C(O)c1ccccc1Br`, the solubility (25 °C) was found to be 9.23 mM (≈ 1860 µg/mL).

Usually solubility stands for the dissolved amount per volume that the medium holds. Read a low solubility as a poorly soluble substance.
